Measured values published in PMC6058608, “Cell penetrating peptides: a comparative transport analysis for 474 sequence motifs” (Drug Delivery, 2018).

test system: HeLa cells; assay: CPP uptake experiment: cellular fluorescence of FAM-labeled CPPs; type: cell-based, human; conditions: FAM not coupled to a CPP; mean value and standard error of two measurements
Method: The human cervix adenocarcinoma cell line HeLa was obtained from I.A.Z. (Munich, Germany). As cell growth medium DMEM/Ham’s F-12 (1:1) supplemented with 2 mM L-glutamine, 10% fetal bovine serum, and 1% penicillin/streptomycin (all Capricorn Scientific, Ebsdorfergrund, Germany, formerly PAA Laboratories) was used, and cells were cultured at 37 °C and 5% CO2. They were passaged before reaching confluence; for the experiments, cells at passages p8–p20 were used. For testing uptake efficiency and cytotoxicity of CPPs, cells were seeded in 96-well µ-plates (ibidi, Munich, Germany) at a concentration of 6 × 10^4 cells per well and incubated for 48 h to reach confluence before performing the experiments.
All solutions used were warmed to 37 °C, with CPP incubation performed at 37 °C and 5% CO2. CPP working solutions were prepared in 96-well polypropylene plates (Corning, Amsterdam, Netherlands) directly before incubation by diluting the 50 µM FAM-labeled CPP stock solutions to 10 µM with cell growth medium. The confluent HeLa cells in the 96-well µ-plates were exposed to 100 µl of a 10 µM CPP working solution per well for 90 min. Cell growth medium served as negative control. After incubation, the cells were washed twice with 300 µl of CM-PBS (PAA Laboratories), then 100 µl CM-PBS was added before determining fluorescence intensities in a plate reader (SpectraMax M5, Molecular Devices, Sunnyvale, CA) at an excitation wavelength of 495 nm and an emission wavelength of 530 nm. Transmission images of the treated cell layers were taken using a MORE microscope (TILL Photonics, Munich, Germany) equipped with a 10×/0.45 objective (Zeiss, Jena, Germany), an FITC filterset (ET480_40x/ET535_50 m/T510LPXRXT, Chroma, Rockingham, NC) and LED and oligochrome light source (FEI). Images were acquired using a Stingray F-145B CCD camera (Allied Vision Tech., Stadtroda, Germany) via live acquisition software (v2.2.2, FEI).

In the case of “5(6)-carboxyfluorescein [FAM, reference compound]”, the “Uptake of FAM without CPP into the HeLa layer” value is reported as 14.3 ± 8.1 RFU.

same assay, conditions: HeLa cells after incubation with 10 µM FAM-labeled CPP, 90 min, 37 °C; mean of two experiments (Table 1)

Compared with GLWRALWRGLRSLWKKKRKV [compound 427], CWKKKKKKKKKKKKKKKKKK [compound 429] is higher in “Fluorescence (RFU)” value: 375.17 RFU for the first, 417.94 RFU for the second.

Compared with KALAKALAKLWKALAKAA [compound 373], PKKKRKVALWKTLLKKVLKA [compound 415] is higher in “Fluorescence (RFU)” value: 345.58 RFU for the first, 390.81 RFU for the second.

First: KLALKLALKALKAALK [compound 296, designed model peptide, FAM-labeled CPP]
Second: LLKKRKVVRLIKFLLK [compound 343]
The “Fluorescence (RFU)” value of the first is higher: 478.40 RFU for the first, 435.30 RFU for the second.

Going from RQARRNRRRALWKTLLKKVLKA [compound 446] to KLALKLALKAWKAALKLA [compound 372], the “Fluorescence (RFU)” value falls from 450.97 RFU to 309.34 RFU.

Going from “KKKKKKKKKKKKKKKKKKK [compound 412, designed model peptide, FAM-labeled CPP]” to YTAIAWVKAFIRKLRK [compound 351], the “Fluorescence (RFU)” value falls from 632.01 RFU to 401.31 RFU.

Compared with GLWRALWRALRSLWKLKRKV [compound 425], KLALKLALKALKAALKLA [compound 405] is higher in “Fluorescence (RFU)” value: 384.64 RFU for the first, 440.41 RFU for the second.

Going from KLAAALLKKWKKLAAALL [compound 375] to GLFKALLKLLKSLWKLLLKA [compound 431], the “Fluorescence (RFU)” value falls from 335.89 RFU to 326.66 RFU.

Going from GLWRALWRGLRSLWKLKRKV [compound 426] to “KTVLLRKLLKLLVRKI [compound 342, designed model peptide, FAM-labeled CPP]”, the “Fluorescence (RFU)” value rises from 347.66 RFU to 855.56 RFU.

First: WLRRIKAWLRRIKALNRQLGVAA [compound 471]
Second: LIRLWSHLIHIWFQNRRLKWKKK [compound 466]
The “Fluorescence (RFU)” value of the first is higher: 1011.42 RFU for the first, 425.60 RFU for the second.

First: LNSAGYLLGKINLKALAALAKKIL [compound 473]
Second: VKRKKKPALWKTLLKKVLKA [compound 416, CPP derived from the antimicrobial peptide dermaseptin S4 attached to a nuclear localization signal, FAM-labeled]
The “Fluorescence (RFU)” value of the first is lower: 422.13 RFU for the first, 925.42 RFU for the second.
